# Source: patent US20100298141A1, “SUBSTITUTED PYRIDINE N-OXIDE HERBICIDES” (E. I. DU PONT DE NEMOURS AND COMPANY, priority 2007, published 2010)
# What was measured:
# Italian ryegrass = assay: Test C pre-/postemergence test; format: in vivo, Lolium multiflorum; conditions: Preemergence
# Summary of the method: (§1)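 Seeds were planted and treated preemergence with test chemical in a non-phytotoxic solvent mixture containing surfactant. Postemergence applications of the same formulation went onto plants 2 to 18 cm tall (1- to 4-leaf stage). A dash marks no test result.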
# Russian thistle = assay: Test C pre-/postemergence test; format: in vivo, Salsola kali; conditions: Preemergence
# Summary of the method: as §1
# itchgrass = assay: Test F preemergence test; format: in vivo, Rottboellia cochinchinensis; conditions: scale 0 to 100
# Summary of the method: (§2)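 Compounds in a non-phytotoxic solvent formulation with surfactant were applied before emergence after sowing, or, for sugarcane, also postemergence. Evaluation was visual, against controls, after 14 to 21 greenhouse days.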
# velvetleaf = assay: Test A pre-/postemergence greenhouse test; format: in vivo, Abutilon theophrasti; conditions: for Velvetleaf plant response rating: 0 to 100 scale
# Summary of the method: (§3)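 Planting was into mixed loam soil and sand; preemergence treatment followed as a directed soil spray. Concurrently, emerged plants (one- to two-leaf, 2–10 cm) received postemergence applications of identically formulated compound (non-phytotoxic solvent, surfactant). After approximately ten days under greenhouse conditions, injury was judged by eye against untreated plants.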
# johnsongrass = assay: Test F preemergence test; format: in vivo, Sorghum halepense; conditions: scale 0 to 100
# Summary of the method: as §2
# goosegrass = assay: Test F preemergence test; format: in vivo, Eleusine indica; conditions: scale 0 to 100
# Summary of the method: as §2
# Virginia dayflower = assay: Test F preemergence test; format: in vivo, Commelina virginica; conditions: scale 0 to 100
# Summary of the method: as §2
# purple nutsedge = assay: Test F preemergence test; format: in vivo, Cyperus rotundus; conditions: scale 0 to 100
# Summary of the method: as §2
# dallisgrass = assay: Test F preemergence test; format: in vivo, Paspalum dilatatum; conditions: scale 0 to 100
# Summary of the method: as §2
# green foxtail = assay: Test C pre-/postemergence test; format: in vivo, Setaria viridis; conditions: Preemergence
# Summary of the method: as §1
# broadleaf signalgrass = assay: Test F preemergence test; format: in vivo, Brachiaria platyphylla; conditions: scale 0 to 100
# Summary of the method: as §2
# kochia = assay: Test F preemergence test; format: in vivo, Kochia scoparia; conditions: scale 0 to 100
# Summary of the method: as §2
# barnyardgrass = assay: Test A pre-/postemergence greenhouse test; format: in vivo, Echinochloa crus-galli; conditions: for Barnyardgrass plant response rating: 0 to 100 scale
# Summary of the method: as §3
# common groundsel = assay: Test F preemergence test; format: in vivo, Senecio vulgaris; conditions: scale 0 to 100
# Summary of the method: as §2
# [1] = 31 g ai/ha, scale 0 to 100 (0 no effect, 100 complete control)
# [2] = Postemergence, 125 g ai/ha, 0 is no effect, 100 is complete control
# [3] = Postemergence, 500 g ai/ha, 0 is no effect, 100 is complete control
# [4] = Preemergence, 125 g ai/ha, 0 no effect, 100 complete control
# [5] = Preemergence, 500 g ai/ha, 0 to 100 scale where 0 is no effect and 100 is complete control
compound,measurement,setting,value
Cc1cc[n+]([O-])c(S(=O)(=O)C(Cl)c2c(C(F)(F)F)nn(C)c2Cl)c1 (racemic) [Compound 22],"Ryegrass, Italian plant response rating","Italian ryegrass; 62 g ai/ha, scale 0 to 100",40
same,"Plant response rating, Ryegrass, Italian",Italian ryegrass; [1],0
same,Russian Thistle plant response rating,"Russian thistle; 62 g ai/ha, scale 0 to 100",100
same,"Plant response rating, Russian Thistle",Russian thistle; [1],100
same,Itchgrass plant response rating,"itchgrass; 62 g ai/ha, Preemergence",0
same,Itchgrass plant response rating,"itchgrass; 125 g ai/ha, preemergence",60
same,"Plant response rating, Itchgrass","itchgrass; Preemergence, 16 g ai/ha",0
same,"Plant response rating, Itchgrass","itchgrass; Preemergence, 31 g ai/ha",0
same,Velvetleaf plant response rating,velvetleaf; [2],0
same,Velvetleaf plant response rating,velvetleaf; [3],40
same,Velvetleaf plant response rating,velvetleaf; [4],10
same,"Plant response rating, Velvetleaf",velvetleaf; [5],60
same,Johnsongrass plant response rating,"johnsongrass; 62 g ai/ha, Preemergence",60
same,Johnsongrass plant response rating,"johnsongrass; 125 g ai/ha, preemergence",100
same,"Plant response rating, Johnsongrass","johnsongrass; Preemergence, 16 g ai/ha",0
same,"Plant response rating, Johnsongrass","johnsongrass; Preemergence, 31 g ai/ha",50
same,Goosegrass plant response rating,"goosegrass; 62 g ai/ha, Preemergence",80
same,Goosegrass plant response rating,"goosegrass; 125 g ai/ha, preemergence",98
same,"Plant response rating, Goosegrass","goosegrass; Preemergence, 16 g ai/ha",65
same,"Plant response rating, Goosegrass","goosegrass; Preemergence, 31 g ai/ha",65
same,Dayflower plant response rating,"Virginia dayflower; 62 g ai/ha, Preemergence",40
same,Dayflower plant response rating,"Virginia dayflower; 125 g ai/ha, preemergence",100
same,"Plant response rating, Dayflower","Virginia dayflower; Preemergence, 16 g ai/ha",0
same,"Plant response rating, Dayflower","Virginia dayflower; Preemergence, 31 g ai/ha",0
same,Purple Nutsedge plant response rating,"purple nutsedge; 62 g ai/ha, Preemergence",50
same,Purple Nutsedge plant response rating,"purple nutsedge; 125 g ai/ha, preemergence",60
same,"Plant response rating, Purple Nutsedge","purple nutsedge; Preemergence, 16 g ai/ha",0
same,"Plant response rating, Purple Nutsedge","purple nutsedge; Preemergence, 31 g ai/ha",15
same,Dallisgrass plant response rating,"dallisgrass; 62 g ai/ha, Preemergence",90
same,Dallisgrass plant response rating,"dallisgrass; 125 g ai/ha, preemergence",100
same,"Plant response rating, Dallisgrass","dallisgrass; Preemergence, 16 g ai/ha",0
same,"Plant response rating, Dallisgrass","dallisgrass; Preemergence, 31 g ai/ha",20
same,"Foxtail, Green plant response rating","green foxtail; 62 g ai/ha, scale 0 to 100",100
same,"Plant response rating, Foxtail, Green",green foxtail; [1],100
same,"Plant response rating (0 to 100), Foxtail, Green",green foxtail; 250 g ai/ha,100
same,Signalgrass plant response rating,"broadleaf signalgrass; 62 g ai/ha, Preemergence",60
same,Signalgrass plant response rating,"broadleaf signalgrass; 125 g ai/ha, preemergence",80
same,"Plant response rating, Signalgrass","broadleaf signalgrass; Preemergence, 31 g ai/ha",50
same,Kochia plant response rating,"kochia; 62 g ai/ha, Preemergence",100
same,Kochia plant response rating,"kochia; 125 g ai/ha, preemergence",98
same,"Plant response rating, Kochia","kochia; Preemergence, 16 g ai/ha",98
same,"Plant response rating, Kochia","kochia; Preemergence, 31 g ai/ha",100
same,Barnyardgrass plant response rating,barnyardgrass; [2],40
same,Barnyardgrass plant response rating,barnyardgrass; [3],80
same,Barnyardgrass plant response rating,barnyardgrass; [4],90
same,"Plant response rating, Barnyardgrass",barnyardgrass; [5],100
same,Groundsel plant response rating,"common groundsel; 62 g ai/ha, Preemergence",50
same,Groundsel plant response rating,"common groundsel; 125 g ai/ha, preemergence",98
same,"Plant response rating, Groundsel","common groundsel; Preemergence, 16 g ai/ha",0
same,"Plant response rating, Groundsel","common groundsel; Preemergence, 31 g ai/ha",50
